Here are results for one compound from patent US20130331610A1, “Halogenated Pyrazolo[1,5-A]Pyrimidines, Processes, Uses, Compositions and Intermediates” (priority 2005, published 2013).

The target in data set [1] is α1 subunit of GABAA receptor (Rattus norvegicus, UniProt P18508+P62813). Briefly: biochemical. From the text: % specific binding=(X−N/T−N)×100
A further data set relates to motor activity of mice. Briefly: In vivo predictive sedation-hypnosis test in mice (inhibition of traveled distance). Also on record: species or system mouse. The following applies: Mus musculus; ip, 98 μmol/kg, mice; read-out: % Inhib motor activity. As for the experimental part: 2—In Vivo Determination of Predictive Sedative-Hypnotic Action
The in vivo effects of these compounds were assessed by a predictive sedation-hypnosis test in mice (D. J. Sanger et al., Eur. J. Pharmacol., 313, 35-42, 1996; and G. Griebel et al., Psychopharmacology, 146, 205-213, 1999).
Groups of 5-8 male CD1 mice, weighing 22-26 g at the time of testing, were used. The test compounds were administered in single equimolecular intraperitoneal doses, suspended in 0.25% agar with one drop of Tween 80 in a volume of 10 ml/kg. Two doses were tested in each route. Control animals received the vehicle alone. Using a Smart System (Panlab, S. L., Spain) the traveled distance in cm was recorded for each mouse at 5-min intervals during a period of 30 minutes after intraperitoneal (ip) dosing and 60 minutes after oral (po) dosing. The inhibition percentage of traveled distance of treated animals versus control animals (the first 5 min were discarded) was calculated.

In a further data set the test system is HepG2 cells. Briefly: In vitro cell toxicity in HepG2 at 24 h (MTS). In kind it is cell-based, human. As for the experimental part: In Vitro Determination of Cell Toxicity in HepG2 at 24 h
HepG2 cells (human hepatocellular carcinoma) were obtained from the American Type Culture Collection (ATCC) and cultured in Eagle's Minimum Essential Medium (Eagle) with Earle's balanced salt solution adjusted to contain 1.87 mM Glutamax™ I, 0.1 mM non-essential amino acids, 1.0 mM sodium pyruvate, 100000 U/L penicillin, 10000 μg/L streptomycin 90%; fetal bovine serum, 10%. Promega CellTiter 96® Aqueous Non-Radioactive Cell Viability Assay contains the tetrazolium compound [3-(4,5-dimethylthiazol-2-yl)-5-(3-carboxymethoxyphenyl)-2-(4-sulfophenyl)-2H-tetrazolium, inner salt (MTS). The conversion of MTS into the aqueous soluble formazan product is accomplished by dehydrogenase enzymes found in metabolically active cells. The quantity of formazan product is directly proportional to the number of living cells in culture.
Compounds were dissolved in DMSO to achieve an initial concentration of 100 mM. Serial dilutions were made from this stock solution into DMSO to achieve concentrations of 10, 1, 0.1 and 0.01 mM. The stock solution and serial dilutions were then diluted 1:100 with cell culture medium to obtain […] final assay concentrations of […]. The final DMSO concentration in all wells was 1% v/v. HepG2 cells were incubated with test compounds for 24 hours. Relative cell viability was determined spectrophotometrically at 490 nm following the addition of the MTS dye and further one-hour incubation. Tamoxifen was used as the positive control.
The percent absorbance of the samples treated with the test article was compared to the untreated sample to calculate the percentage of control.

Data set [2] addresses α2 subunit of GABAA receptor (Rattus norvegicus, UniProt P18508+P23576). The experiment in a line: biochemical.
Description: Determination of the Affinity of Test Compounds for α1- and α2-GABAA Receptor
Male Sprague-Dawley rats weighing 200-250 g at the time of experiment were used. After decapitation, the cerebellum (tissue that mostly contains α1-GABAA receptor) and spinal cord (tissue that mostly contains α2-GABAA receptor) were removed. […] Once the tissues weighed, they were suspended in 50 mM Tris.HCl (pH 7.4), 1:40 (v/v), or sucrose 0.32 M in the case of spinal cord, homogenized and then centrifuged at 20000 g for 10 min at 7° C. The resulting pellet was resuspended under the same conditions and centrifuged again. The pellet was finally resuspended on a minimum volume and kept at −80° C. overnight. On the next day, the process was repeated until the final pellet was resuspended at a ratio of 1:10 (v/v) in the case of cerebellum and at a ratio of 1:5 (v/v) in the case of spinal cord.
Affinity was determined by competitive tests using radiolabeled flumazenil as ligand. […] Simultaneously, the membranes were only incubated with the radiolabeled flumazenil (total binding, 100%) and in the presence of an elevated concentration of unradiolabeled flumazenil (non-specific binding, % estimation of radiolabeled ligand). The reactions started on adding the radiolabeled ligand followed by incubation for 60 minutes at 4° C. At the end of the incubation period, 200 μl of reaction were transferred to a multiscreen plate (Millipore) and filtered using a vacuum manifold and then washed three times with cold test buffer. The multiscreen plates were equipped with a GF/B filter that retained the membranes containing the receptors and the radiolabeled ligand which had been bound to the receptors. After washing, the plates were left till dry. Once dried, scintillation liquid was added and left under stirring overnight. The next day the plates were counted using a Perkin-Elmer Microbeta scintillation counter.
where, X: amount of bound ligand for every concentration of compound. T: total binding, maximum amount bound to the radiolabeled ligand. N: non-specific binding, amount of radiolabeled ligand bound in a non-specific way irrespective of the receptor used.
Every concentrations of each compound were tested in triplicate and their mean values were used to determine the experimental values of % specific binding versus the concentration of compound.

α1 subunit of GABAA receptor, sequence (P62813 28-455): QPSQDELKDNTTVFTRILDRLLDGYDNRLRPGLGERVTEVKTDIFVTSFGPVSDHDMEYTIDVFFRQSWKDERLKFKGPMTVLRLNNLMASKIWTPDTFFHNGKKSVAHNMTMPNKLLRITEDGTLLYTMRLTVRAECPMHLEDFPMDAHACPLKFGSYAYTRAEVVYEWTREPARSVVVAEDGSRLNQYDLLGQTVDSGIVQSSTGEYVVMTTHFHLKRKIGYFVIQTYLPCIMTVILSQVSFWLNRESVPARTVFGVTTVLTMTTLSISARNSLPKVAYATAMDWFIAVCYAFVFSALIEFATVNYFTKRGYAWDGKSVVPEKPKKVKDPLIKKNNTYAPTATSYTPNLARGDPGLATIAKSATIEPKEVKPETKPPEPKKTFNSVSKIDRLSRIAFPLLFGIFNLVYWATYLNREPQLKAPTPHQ
α1 subunit of GABAA receptor, sequence (P18508 39-466): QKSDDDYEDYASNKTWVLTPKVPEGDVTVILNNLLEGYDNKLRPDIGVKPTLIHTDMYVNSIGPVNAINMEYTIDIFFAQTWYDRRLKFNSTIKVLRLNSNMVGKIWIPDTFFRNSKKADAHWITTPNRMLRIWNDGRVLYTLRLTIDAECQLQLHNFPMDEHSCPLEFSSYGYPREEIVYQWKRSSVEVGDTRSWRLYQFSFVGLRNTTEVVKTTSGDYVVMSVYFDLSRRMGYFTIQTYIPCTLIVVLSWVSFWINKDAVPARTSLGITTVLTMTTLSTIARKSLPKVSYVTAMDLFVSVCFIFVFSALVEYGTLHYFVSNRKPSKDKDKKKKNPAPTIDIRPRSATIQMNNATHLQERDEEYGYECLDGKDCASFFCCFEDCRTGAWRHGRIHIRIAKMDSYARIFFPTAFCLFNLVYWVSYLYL
α1 subunit of GABAA receptor, sequence (P63138 26-474 partner): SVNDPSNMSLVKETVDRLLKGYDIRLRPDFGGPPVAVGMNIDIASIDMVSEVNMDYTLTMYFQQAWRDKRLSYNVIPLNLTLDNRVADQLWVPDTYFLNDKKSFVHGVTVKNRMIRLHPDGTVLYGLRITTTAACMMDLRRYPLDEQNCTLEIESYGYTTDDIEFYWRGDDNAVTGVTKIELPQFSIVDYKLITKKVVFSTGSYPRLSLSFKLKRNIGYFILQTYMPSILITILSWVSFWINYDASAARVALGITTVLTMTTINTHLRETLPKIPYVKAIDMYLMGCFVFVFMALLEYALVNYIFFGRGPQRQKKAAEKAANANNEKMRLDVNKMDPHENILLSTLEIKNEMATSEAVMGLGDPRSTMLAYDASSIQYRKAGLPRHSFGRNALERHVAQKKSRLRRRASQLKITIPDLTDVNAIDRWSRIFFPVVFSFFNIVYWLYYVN
α2 subunit of GABAA receptor, sequence (P23576 29-451): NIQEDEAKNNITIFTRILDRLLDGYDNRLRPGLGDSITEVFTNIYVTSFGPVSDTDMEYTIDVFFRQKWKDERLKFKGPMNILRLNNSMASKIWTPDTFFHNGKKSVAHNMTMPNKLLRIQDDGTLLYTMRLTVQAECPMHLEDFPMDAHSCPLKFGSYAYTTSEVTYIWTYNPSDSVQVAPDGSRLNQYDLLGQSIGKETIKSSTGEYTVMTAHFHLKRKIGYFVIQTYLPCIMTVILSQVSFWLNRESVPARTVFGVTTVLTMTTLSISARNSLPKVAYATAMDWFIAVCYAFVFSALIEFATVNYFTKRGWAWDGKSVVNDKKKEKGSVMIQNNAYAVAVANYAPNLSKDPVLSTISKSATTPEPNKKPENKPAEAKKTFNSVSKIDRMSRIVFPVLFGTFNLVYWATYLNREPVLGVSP
α2 subunit of GABAA receptor, sequence (P18508 39-466): as the sequence (P18508 39-466) above
α2 subunit of GABAA receptor, sequence (P63079 26-473 partner): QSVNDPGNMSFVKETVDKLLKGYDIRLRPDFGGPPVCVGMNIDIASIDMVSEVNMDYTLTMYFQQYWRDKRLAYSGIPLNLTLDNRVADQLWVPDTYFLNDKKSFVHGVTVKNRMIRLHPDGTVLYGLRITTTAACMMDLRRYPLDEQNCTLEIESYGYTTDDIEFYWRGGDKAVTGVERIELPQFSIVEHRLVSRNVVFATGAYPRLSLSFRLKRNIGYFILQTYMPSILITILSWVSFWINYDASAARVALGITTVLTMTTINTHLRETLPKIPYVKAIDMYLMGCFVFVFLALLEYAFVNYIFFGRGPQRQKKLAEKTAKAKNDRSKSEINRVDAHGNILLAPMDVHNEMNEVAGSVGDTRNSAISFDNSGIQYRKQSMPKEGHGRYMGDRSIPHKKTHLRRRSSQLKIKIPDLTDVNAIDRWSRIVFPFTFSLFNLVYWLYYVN

Consider `CN(c1cc(-c2ccnc3c(C(=O)c4cccs4)cnn23)ccc1Cl)S(C)(=O)=O` [Preparative example 8, N-{2-Chloro-5-[3-(thiophene-2-carbonyl)-pyrazolo[1,5-a]pyrimidin-7-yl]-phenyl}-N-methyl-methanesulfonamide], for which the melting point was 241 to 243 °C. In data set [1] (read-out: % Inhib 10^−5 M), the inhibition at 10 µM worked out at 93.8%. The inhibition at 0.1 µM in data set [1] (read-out: % Inhib 10^−7 M) was determined as 40.9%. The inhibition in vivo at 98 µmol/kg with motor activity of mice is 78.3%. The “cell toxicity in HepG2, percentage of control (relative cell viability)” value in the data set with HepG2 cells (100 μM, 24 h, MTS) is given as 75.39%. The “cytotoxicity compared with prior art compounds” value with HepG2 cells (HepG2, 24 h) was “less cytotoxicity than prior art compounds”. Moreover, the inhibition at 10 µM in data set [2] (read-out: % Inhib 10^−5 M) was found to be 68.9%. Besides, the inhibition at 0.1 µM in data set [2] (read-out: % Inhib 10^−7 M) amounted to 0%.

One may read the melting point as the temperature, or range, at which the solid turns liquid.
